Data taken from patent publication US11136311B2, “Heteroaromatic derivatives as NIK inhibitors” (Janssen Pharmaceutica NV, priority 2016, dated 2021).
Read-outs that look alike come from different tables or passages of the source.

Legend:
[1] = target: recombinant human NF-kappaB-inducing kinase (NIK/MAP3K14) (Homo sapiens (Human), UniProt Q99558); assay: Inhibition of auto-phosphorylation of recombinant human NIK/MAP3K14 activity (AlphaScreen); format: biochemical; conditions: averaged values over all measurements on all batches
In short: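 GST-tagged NIK at 0.2 nM autophosphorylated for 1 h at 25° C with 25 microM ATP in Tris pH 7.5, MgCl2, 1% DMSO. Phospho-IKK Ser176/180 antibody with AlphaScreen beads detected product. IC50 came from sigmoidal fits of blank-corrected % inhibition.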

KMS12-BM cells = assay: Antiproliferative activity on KMS12-BM (NIK WT) multiple myeloma cells (CellTiter-Glo); format: cell-based, human; conditions: read-out: KMS-12 Proliferation inhibition (IC50 (nM))
In short: (§1)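 Suspension myeloma cells in RPMI 1640 with 10% FCS, plated at 15000 (JJN-3) or 20000 (KMS12-BM) cells/well, were treated 96 hr with 9-point 1:3 compound dilutions at 0.3% DMSO. CellTiter-Glo luminescence, minus a time-zero blank, was expressed as % of untreated control growth.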

JJN-3 cells = assay: Antiproliferative activity on JJN-3 (NIK translocated) multiple myeloma cells (CellTiter-Glo); format: cell-based, human; conditions: read-out: JJN-3 Proliferation inhibition (IC50 (nM))
In short: as §1

[2] = system: P-IKKα levels in L363 cells; assay: Effect of compounds on P-IKKα levels in L363 (NIK translocated multiple myeloma) cells; format: cell-based, human
In short: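 L363 myeloma cells were primed 24 h with BAFF, then treated 2 h with compound (8-point, 1:3 dilutions, 1% DMSO) at 37°C. P-IKKα in lysates was measured by Mesoscale sandwich immunoassay, with the full-inhibition blank subtracted. IC50 came from a sigmoidal fit of % inhibition of control against log concentration.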

[3] = Homo sapiens, KMS-12-BM, 96 h, KMS12-BM (NIK WT) cells, 96 hr, averaged values
[4] = Homo sapiens, JJN-3, 96 h, JJN-3 (NIK translocated) cells, 96 hr, averaged values
[5] = Homo sapiens, L-363, L363 cells, averaged values, read-out: Inhibition of pIKKα_L-363 (IC50 (nM))
[6] = KMS12-BM (NIK WT) cells, 96 hr, averaged values
[7] = JJN-3 (NIK translocated) cells, 96 hr, averaged values
[8] = L363 cells, averaged values, read-out: Inhibition of pIKKα_L-363 (IC50 (nM))

Chain of recombinant human NF-kappaB-inducing kinase (NIK/MAP3K14) (Q99558 whole entry): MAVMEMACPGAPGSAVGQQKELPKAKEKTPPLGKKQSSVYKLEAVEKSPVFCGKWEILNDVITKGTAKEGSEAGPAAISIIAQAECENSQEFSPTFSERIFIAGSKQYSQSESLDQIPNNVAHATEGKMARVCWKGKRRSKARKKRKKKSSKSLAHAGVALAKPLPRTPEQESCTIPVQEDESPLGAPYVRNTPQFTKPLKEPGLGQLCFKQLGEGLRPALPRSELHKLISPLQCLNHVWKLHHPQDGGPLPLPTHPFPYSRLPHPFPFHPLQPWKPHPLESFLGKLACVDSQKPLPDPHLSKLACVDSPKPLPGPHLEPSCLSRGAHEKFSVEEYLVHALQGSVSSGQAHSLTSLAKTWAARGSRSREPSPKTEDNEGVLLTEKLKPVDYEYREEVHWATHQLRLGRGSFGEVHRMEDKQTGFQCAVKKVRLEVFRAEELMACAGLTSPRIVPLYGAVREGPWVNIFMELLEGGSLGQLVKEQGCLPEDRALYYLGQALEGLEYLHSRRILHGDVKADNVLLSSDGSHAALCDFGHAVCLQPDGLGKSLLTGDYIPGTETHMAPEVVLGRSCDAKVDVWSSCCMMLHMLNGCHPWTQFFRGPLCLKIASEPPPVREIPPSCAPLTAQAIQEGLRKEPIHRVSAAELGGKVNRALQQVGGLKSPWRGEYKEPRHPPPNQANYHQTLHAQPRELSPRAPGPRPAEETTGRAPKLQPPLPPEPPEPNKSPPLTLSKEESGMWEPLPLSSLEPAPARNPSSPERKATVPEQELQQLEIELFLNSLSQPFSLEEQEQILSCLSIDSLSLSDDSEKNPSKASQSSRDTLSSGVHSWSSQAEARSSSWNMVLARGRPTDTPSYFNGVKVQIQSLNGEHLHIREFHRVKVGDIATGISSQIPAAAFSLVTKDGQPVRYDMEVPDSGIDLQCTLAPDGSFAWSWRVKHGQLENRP

| Compound | IC50 [1] [nM] | IC50 (KMS12-BM cells; [3]) [nM] | IC50 (JJN-3 cells; [4]) [nM] | IC50 [2, 5] [nM] | IC50 (KMS12-BM cells; [6]) [nM] | IC50 (JJN-3 cells; [7]) [nM] | IC50 [2, 8] [nM] | IC50 (KMS12-BM cells; Homo sapiens, KMS-12-BM, 96 h) [nM] | IC50 (JJN-3 cells; Homo sapiens, JJN-3, 96 h) [nM] | IC50 ([2]; Homo sapiens, L-363, read-out: Inhibition of pIKKα_L-363 (IC50 (nM))) [nM] |
| --- | --- | --- | --- | --- | --- | --- | --- | --- | --- | --- |
| CN1CCN(Cc2c(Nc3nccc(-c4cc(C#N)c5c(c4)[C@@](C)(CO)CN5)n3)cnn2CCC2CC2)CC1 [Compound 167] | 13 | > 10000 | 83 | 62 |  |  |  |  |  |  |
| CC(C)CCc1c(Nc2nccc(-c3cc(C#N)c4c(c3)[C@@](C)(CO)CN4)n2)cnn1CC1CCN(CC(F)F)CC1 [Compound 169] | 3.9 | ~7080 | 389 | 16 |  |  |  |  |  |  |
| Cc1c(Nc2nccc(-c3cc(C#N)c4c(c3)[C@@](C)(CO)CN4)n2)cnn1CCN1CCOCC1 [Compound 170] | 2.2 | ~1780 | 417 | 7 |  |  |  |  |  |  |
| Cn1ccc(Nc2nccc(-c3cc(C#N)c4c(c3)[C@@](C)(CN3CCN(C5CC5)CC3)CN4)n2)n1 [Compound 176] | 32 | ~3310 | 65 | 76 |  |  |  |  |  |  |
| COCCCn1nc(C)cc1Nc1nccc(-c2cc(C#N)c3c(c2)[C@@](C)(COC(C)=O)CN3)n1 [Compound 177] | 10 | > 10000 | 81 | 28 |  |  |  |  |  |  |
| CC(=O)OC[C@@]1(C)CNc2c(C#N)cc(-c3ccnc(Nc4cc(C)nn4CC4CCN(C)CC4)n3)cc21 [Compound 178] | 20 |  |  |  | 2340 | 98 | 141 |  |  |  |
| COCCc1nn(CC(F)F)cc1Nc1nccc(-c2cc(C#N)c3c(c2)[C@@](C)(CO)CN3)n1 [Compound 180] | 4.7 | ~6720 | 46 | 2 |  |  |  |  |  |  |
| COCCc1c(Nc2nccc(-c3cc(C#N)c4c(c3)[C@@](C)(CO)CN4)n2)cnn1CC(F)F [Compound 181] | 3.3 | ~9120 | 87 | 11 |  |  |  |  |  |  |
| Cc1cc(Nc2nccc(-c3cc(C#N)c4c(c3)[C@@](C)(CO)CN4)n2)nn1CCN1CCOCC1 [Compound 182] | 1.7 | 1380 | 151 | 1 |  |  |  |  |  |  |
| CNC(=O)c1cc(Nc2nccc(-c3cc(C#N)c4c(c3)[C@@](C)(CO)CN4)n2)n(C(C)C)n1 [Compound 183] | 22 | ~9770 | 1410 | 35 |  |  |  |  |  |  |
| CN1CCN(C(=O)c2nn(CC(F)F)cc2Nc2nccc(-c3cc(C#N)c4c(c3)[C@@](C)(CO)CN4)n2)CC1 [Compound 184] | 5.4 | > 10000 | 224 | 17 |  |  |  |  |  |  |
| CN1CCN(Cc2nn(CC(F)F)cc2Nc2nccc(-c3cc(C#N)c4c(c3)[C@@](C)(CO)CN4)n2)CC1 [Compound 185] | 6 | > 10000 | 91 | 20 |  |  |  |  |  |  |
| Cc1cc(Nc2nccc(-c3cc(C#N)c4c(c3)[C@@](C)(CO)CN4)n2)n(CC(F)F)n1 [Compound 186] | 6.5 | 617 | 151 | 3 |  |  |  |  |  |  |
| CNC(=O)c1nn(CC(F)F)cc1Nc1nccc(-c2cc(C#N)c3c(c2)[C@@](C)(CO)CN3)n1 [Compound 187] | 7.2 | > 10000 | ~1380 | 11 |  |  |  |  |  |  |
| CC(C)Oc1nn(CC(F)F)cc1Nc1nccc(-c2cc(C#N)c3c(c2)[C@@](C)(CO)CN3)n1 [Compound 188] | 2.9 | ~8130 | 138 | 4 |  |  |  |  |  |  |
| Cn1ncc(Nc2nccc(-c3cc(C#N)c4c(c3)[C@@](C)(CO)CN4)n2)c1OC1CC1 [Compound 192] | 8.1 | > 10000 | 91 | 6 |  |  |  |  |  |  |
| CC(C)Oc1c(Nc2nccc(-c3cc(C#N)c4c(c3)[C@@](C)(CO)CN4)n2)cnn1C [Compound 194] | 3.1 | > 10000 | 407 | 29 |  |  |  |  |  |  |

| Compound | IC50 [1] [nM] | IC50 (KMS12-BM cells; [3]) [nM] | IC50 (JJN-3 cells; [4]) [nM] | IC50 [2, 5] [nM] | IC50 (KMS12-BM cells; [6]) [nM] | IC50 (JJN-3 cells; [7]) [nM] | IC50 [2, 8] [nM] | IC50 (KMS12-BM cells; Homo sapiens, KMS-12-BM, 96 h) [nM] | IC50 (JJN-3 cells; Homo sapiens, JJN-3, 96 h) [nM] | IC50 ([2]; Homo sapiens, L-363, read-out: Inhibition of pIKKα_L-363 (IC50 (nM))) [nM] |
| --- | --- | --- | --- | --- | --- | --- | --- | --- | --- | --- |
| CNC(=O)c1cc(Nc2nccc(-c3cc(C#N)c4c(c3)[C@@](C)(CO)CN4)n2)nn1C1CCCC1 [Compound 195] | 4.9 | > 10000 | 158 | 1 |  |  |  |  |  |  |
| CNC(=O)c1cc(Nc2nccc(-c3cc(C#N)c4c(c3)[C@@](C)(CO)CN4)n2)n(C2CCCC2)n1 [Compound 196] | 8.3 | 5250 | 554 | 36 |  |  |  |  |  |  |
| CNC(=O)c1cc(Nc2nccc(-c3cc(C#N)c4c(c3)[C@@](C)(CO)CN4)n2)nn1CC(F)F [Compound 197] | 2.1 | ~2240 | 204 | 4 |  |  |  |  |  |  |
| CNC(=O)c1cc(Nc2nccc(-c3cc(C#N)c4c(c3)[C@@](C)(CO)CN4)n2)n(CCC2CC2)n1 [Compound 198] | 6.8 | > 10000 | 112 | 20 |  |  |  |  |  |  |
| CCn1ncc(Nc2nccc(-c3cc(C#N)c4c(c3)[C@@](C)(CO)CN4)n2)c1N1CCOCC1 [Compound 199] | 3.5 | > 10000 | 1900 | 25 |  |  |  |  |  |  |
| C[C@]1(CO)CNc2c(C#N)cc(-c3ccnc(Nc4cnn(CCN5CC6COCC6C5)c4N4CCOCC4)n3)cc21 (stereo partly shown) [Compound 200] | 5.9 |  |  |  |  |  |  | > 10000 | 3550 | 20 |
| CNC(=O)c1cc(Nc2nccc(-c3cc(C#N)c4c(c3)[C@@](C)(CO)CN4)n2)nn1CCC1CC1 [Compound 201] | 3.4 |  |  |  | > 10000 | 100 | 2 |  |  |  |
| Cn1cc(Nc2nccc(-c3cc(C#N)c4c(c3)[C@@](C)(CO)CN4)n2)c(OCCN2CCOCC2)n1 [Compound 203] | 4 | > 10000 | 339 | 25 |  |  |  |  |  |  |
| CC(C)c1nn(CC(F)F)cc1Nc1nccc(-c2cc(C#N)c3c(c2)[C@@](C)(CO)CN3)n1 [Compound 204] | 1.1 | ~6030 | 16 | 2 |  |  |  |  |  |  |
| C[C@]1(CO)CNc2c(C#N)cc(-c3ccnc(Nc4cn(CC(F)F)nc4C4CC4)n3)cc21 [Compound 205] | 2.2 | ~4900 | 5 | 1 |  |  |  |  |  |  |
| C[C@]1(CO)CNc2c(C#N)cc(-c3ccnc(Nc4cnn(CCN5CCOCC5)c4Cl)n3)cc21 [Compound 208] | 2 | ~4790 | 48 | 4 |  |  |  |  |  |  |
| CC(C)n1nc(C(=O)N2CCCC2)cc1Nc1nccc(-c2cc(C#N)c3c(c2)[C@@](C)(CO)CN3)n1 [Compound 210] | 6.3 | > 10000 | 1580 | 71 |  |  |  |  |  |  |
| C[C@]1(CO)CNc2c(C#N)cc(-c3ccnc(Nc4cc(C(=O)N5CCCC5)n(C5CCCC5)n4)n3)cc21 [Compound 213] | 5.6 | > 10000 | 95 | 27 |  |  |  |  |  |  |
| COCCOc1nn(CC(F)F)cc1Nc1nccc(-c2cc(C#N)c3c(c2)[C@@](C)(CO)CN3)n1 [Compound 217] | 4.6 | ~7620 | 154 | 11 |  |  |  |  |  |  |
| C[C@]1(CO)CNc2c(C#N)cc(-c3ccnc(Nc4cn(CC(F)F)nc4OC4CC4)n3)cc21 [Compound 218] | 2.8 | ~7430 | 38 | 7 |  |  |  |  |  |  |
| C[C@]1(CO)CNc2c(C#N)cc(-c3cc(Nc4cn(CC(F)F)nc4C4CCOCC4)ncn3)cc21 [Compound 220] | 5.6 | > 10000 | 195 | 11 |  |  |  |  |  |  |
| COC[C@H](O)Cn1ncc(Nc2nccc(-c3cc(C#N)c4c(c3)[C@@](C)(CO)CN4)n2)c1OC [Compound 221] | 14.8 | > 10000 | 2290 | ~105 |  |  |  |  |  |  |
